Data on 37 molecules can be found in ChEMBL document CHEMBL1147031, “3D-QSAR and molecular docking studies of benzaldehyde thiosemicarbazone, benzaldehyde, benzoic acid, and their derivatives as phenoloxidase inhibitors” (Bioorg Med Chem, 2007).

A short description of this assay: Inhibition of pieris rapae Phenoloxidase.

Take `O=Cc1ccccc1O`: the IC50 (commonly the concentration needed to halve the response being measured) was found to be 4.14 mM.
In the case of `CC(C)c1ccc(C(=O)O)cc1` it was 1.92 mM; in that of `CCCc1ccc(C(=O)O)cc1`, 1.75 mM.
As for `COc1cccc(C=O)c1O`, the figure is 5.75 mM; as for `Nc1ccc(C(=O)O)cc1O`, 25.5 mM.
As for `CC(C)c1ccc(C=O)cc1`, the figure is 0.86 mM.
Molecule `COc1ccc(C=O)cc1` displayed an IC50 of 1.9 mM.
With `COc1cccc(C(=O)O)c1`, inhibition was half-maximal at 13.3 mM (IC50).
In the case of `COc1cccc(C=O)c1` it was 42.9 mM; in that of `COc1cccc(/C=N/NC(N)=S)c1`, 0.00192 mM.
In the case of `NC(=S)N/N=C/c1ccccc1O` it was 0.0022 mM; in that of `CC(C)(C)c1ccc(C=O)cc1`, 0.72 mM.
In turn, `Nc1cc(C(=O)O)ccc1O` yielded an IC50 of 3.8 mM.
As for `O=Cc1cc(O)ccc1O`, the figure is 1.05 mM; as for `O=Cc1ccc(O)cc1O`, 4.88 mM; as for `COc1ccc(C=O)c(O)c1`, 2 mM.
In the case of `NC(=S)N/N=C\C=C\c1ccccc1`, the IC50 is 0.00065 mM.
In the case of `COc1ccc(/C=N/NC(N)=S)cc1` it was 0.0006 mM; in that of `CC(C)(C)c1ccc(C(=O)O)cc1`, 2.1 mM.
As for `O=C(O)c1ccc(O)cc1O` [2,4-DIHYDROXYBENZOIC ACID], the figure is 30.5 mM; as for `COc1ccccc1C=O` [2-METHOXYBENZALDEHYDE], 107 mM.
For `O=Cc1cccc(O)c1` [3-HYDROXYBENZALDEHYDE], the IC50 was 9.62 mM.
As to `O=C(O)c1cccc(O)c1` [3-HYDROXYBENZOIC ACID], the IC50 was determined as 16.2 mM.
In the case of `O=Cc1ccc(O)cc1` [4-HYDROXYBENZALDEHYDE] it was 3.12 mM.
In the case of `O=Cc1ccccc1` [BENZALDEHYDE] it was 5.9 mM; in that of `O=C(O)c1ccccc1` [BENZOIC ACID], 14.2 mM.
In the case of `O=C(O)c1cc(O)ccc1O` [GENTISIC ACID] it was 32.5 mM; in that of `COc1ccc(C(=O)O)cc1O` [ISOVANILLIC ACID], 47.5 mM.
Regarding `COc1ccc(C=O)cc1O` [ISOVANILLIN], the midpoint of inhibition, the IC50, lay at 24.9 mM.
Turning to `O=C(O)c1ccc(O)cc1` [PARABEN], the IC50 was 16.2 mM.
For `NC(=S)N/N=C/c1ccccc1` [PHENYLTHIOSEMICARBAZONE], it took 0.00084 mM to reach half-maximal inhibition (IC50).
On to `O=Cc1ccc(O)c(O)c1` [PROTOCATECHUALDEHYDE], for which the IC50 came out at 9 mM.
In the case of `O=C(O)c1ccc(O)c(O)c1` [PROTOCATECHUIC ACID] it was 29.5 mM; in that of `O=C(O)c1ccccc1O` [SALICYLIC ACID], 33.8 mM; in that of `COc1cc(C(=O)O)ccc1O` [VANILLIC ACID], 69 mM.
As for `COc1cc(C=O)ccc1O` [VANILLIN], the figure is 50.5 mM; as for `COc1ccc(C(=O)O)cc1` [p-ANISIC ACID], 5.55 mM.
